Measurements: patent publication US20240252440A1, “COMPOSITIONS, METHODS AND SYSTEMS FOR AEROSOL DRUG DELIVERY” (ASTRAZENECA PHARMACEUTICALS LP, priority 2021, published 2024)

Assay: Particle size distribution by laser diffraction
Assay type: physicochemical
Description: When referred to herein, the term “optical diameter” indicates the size of a particle as measured by the Fraunhofer diffraction mode using a laser diffraction particle size analyzer equipped with a dry powder dispenser (e.g., Sympatec GmbH, Clasthal-Zellerfeld, Germany).
Suspending particles were manufactured by spray drying an emulsion of PFOB (perfluorooctyl bromide) and water stabilized by DSPC (1,2-Distearoyl-sn-Glycero-3-Phosphocholine). […] The particle size distribution of the suspending particles was determined by laser diffraction.
Active agent particles formed of budesonide, 16,17-(butylidenebis(oxy))-11,21-dihydroxy-(11-β,16-α)-pregna-1,4-diene-3,20-dione, were formed by micronizing budesonide using a jet mill. The particle size distribution of the budesonide (BD) was determined by laser diffraction.

Molecule	optical diameter exhibited by 50% by volume of the particles	optical diameter exhibited by 90% by volume of the particles
COc1ccc(CC(C)NCC(O)c2ccc(O)c(NC=O)c2)cc1.O=C(O)/C=C/C(=O)O (racemic) [formoterol fumarate, (±)-2-hydroxy-5-[(1RS)-1-hydroxy-2-[[(1RS)-2-(4-methoxyphenyl)-1-methylethyl]-amino]ethyl]formanilide fumarate]	smaller than 1.6 μm	smaller than 3.9 μm
C[N+]1(C)CCC(OC(=O)C(O)(c2ccccc2)C2CCCC2)C1.[Br-] (stereo not drawn) [glycopyrrolate, Pyrrolidinium, 3-((cyclopentylhydroxyphenylacetyl)oxy)-1,1-dimethyl-, bromide]	smaller than 2.1 μm	smaller than 5 μm
albuterol sulfate	smaller than 1.5 μm	smaller than 3.3 μm
